What all share (format): biochemical
One test deals with T1, KDR (Homo sapiens, UniProt P35968).
T1 construct: EEE tag
The test can be described thus: KDR kinase HTRF assay. The following applies: 0.3 mM ATP. On the procedure: (§1) To determine inhibition of KDR, FGFR, EGFR, and PDGFR activity, kinase assays were conducted using an HTRF (Homogeneous Time Resolved Fluorescence) assay. This assay is described in A. J. Kolb et. al., Drug Discovery Today, 1998, 3(7), p 333.
Prior to kinase reaction, recombinant EEE-tagged KDR was activated in the presence of activation buffer (50 mM HEPES, pH 7.4, 1 mM DTT, 10% glycerol, 150 mM NaCl, 0.1 mM EDTA, 26 mM MgCl2, and 4 mM ATP). The enzyme was incubated at 4° C. for 1 hour.
(§2) Kinase activity assays were performed in 96-well polypropylene plates (Falcon) with a total volume of 90 μL in each well. Each well contained 1 μM KDR substrate (Biotin-EEEEYFELVAKKKK), 1 nM activated KDR, and a test compound with one of 8 assay concentrations ranging from 100 μM to […] (1:5 serial dilution). The kinase activity assay was done in the presence of 100 mM HEPES, pH 7.4, 1 mM DTT, 0.1 mM Na2VO4, 25 mM MgCl2, 50 mM NaCl (from KDR stock solution), 1% DMSO (from compound), 0.3 mM ATP (at Km concentration) and 0.02% BSA. The reaction was incubated at 37° C. for 30 minutes. To stop the KDR reaction, 72 μL of reaction mixture was transferred into a STOP plate containing 18 μL of revelation buffer (20 mM EDTA, 50 mM HEPES, pH 7.4, 0.02% BSA, 10 nM Eu-labelled anti-pY antibody (final conc. 2 nM), and 100 nM streptavidin (final conc. 20 nM)). After mixing, 35 μL of solution was transferred into duplicate wells of a 384-well black plate (Costar), and read at 615/665 nm on a Wallac Victor 5 reader.
(§3) Compound IC50 values were determined from duplicate sets of data, and calculated by using Excel and fitting data to equation Y=[(a−b)/{1+(X/c)^d]+b, where a and b are enzyme activity in the presence of no test inhibitor compound and an infinite amount of inhibitor test compound, respectively, c is the IC50 and d is the hill constant of the compound response. The IC50 value is the concentration of test compound that reduces by 50% the enzyme activity under the test conditions described.

For another test, the target named is T2, FGFR.
T2 construct: fused on or other part: GST tag
The test can be described thus: FGFR kinase HTRF assay. The settings on record: 10 μM ATP. The protocol:
as §1, §2
FGFR, EGFR, and PDGFR activity assays were carried out as described above for the KDR activity assay with the following differences. GST-tagged FGFR enzyme was activated at room temperature for 1 hour in the following activation buffer: 100 mM HEPES, pH 7.4, 50 mM NaCl, 20 mM MgCl2, and 4 mM ATP. The kinase activity assay was performed with 1 μM substrate (Biotin-EEEEYFELV), 1.5 nM activated FGFR, and test compound in the presence of 100 mM HEPES, 1 mM DTT, 0.4 mM MgCl2, 0.4 mM MnCl2, 50 mM NaCl, 1% DMSO, 10 μM ATP (Km=8.5 μM for FGFR), 0.1 mM Na2VO4, and 0.02% BSA, in a total volume of 90 μL. The rest of the assay was performed in the same manner as KDR assay.
as §3
(In general: Time-resolved FRET reads energy transfer from a long-lived donor to a nearby acceptor.)

A further test addresses EGFR (Homo sapiens, UniProt P00533). The test can be described thus: EGFR kinase HTRF assay. The settings on record: 0.5 μM ATP. On the procedure:
as §1, §2
The EGFR kinase activity assay was performed with 1 μM substrate (Biotin-EEEEYFELV), 1.5 nM EGFR, test compounds, 100 mM HEPES, pH 7.4, 1 mM DTT, 5 mM MgCl2, 2 mM MnCl2, 1% DMSO, 0.5 μM ATP (Km for EGFR), 0.1 mM Na2VO4, and 0.02% BSA. The rest of the assay was performed in the same manner as the KDR assay.
as §3

The target in a further test is PDGFR. The test can be described thus: PDGFR kinase HTRF assay. The following applies: 2.3 μM ATP. On the procedure: as §1, §2
The PDGFR kinase activity assay was performed with 1 μM substrate (Biotin-EEEEYFELV), 1.0 nM PDGFR, test compounds, 100 mM HEPES, pH 7.4, 1 mM DTT, 5 mM MgCl2, 2 mM MnCl2, 1% DMSO, 2.3 μM ATP (Km for PDGFR), 0.1 mM Na2VO4, and 0.02% BSA. The rest of the assay was performed in the same manner as the KDR assay.
as §3

pIC50: −log10 of the molar value.

What is called pIC50 is the IC50 on a negative log10 scale, so that one unit is a factor of ten. A higher pIC50 goes with a low IC50.

T1 sequence (P35968 20-1356): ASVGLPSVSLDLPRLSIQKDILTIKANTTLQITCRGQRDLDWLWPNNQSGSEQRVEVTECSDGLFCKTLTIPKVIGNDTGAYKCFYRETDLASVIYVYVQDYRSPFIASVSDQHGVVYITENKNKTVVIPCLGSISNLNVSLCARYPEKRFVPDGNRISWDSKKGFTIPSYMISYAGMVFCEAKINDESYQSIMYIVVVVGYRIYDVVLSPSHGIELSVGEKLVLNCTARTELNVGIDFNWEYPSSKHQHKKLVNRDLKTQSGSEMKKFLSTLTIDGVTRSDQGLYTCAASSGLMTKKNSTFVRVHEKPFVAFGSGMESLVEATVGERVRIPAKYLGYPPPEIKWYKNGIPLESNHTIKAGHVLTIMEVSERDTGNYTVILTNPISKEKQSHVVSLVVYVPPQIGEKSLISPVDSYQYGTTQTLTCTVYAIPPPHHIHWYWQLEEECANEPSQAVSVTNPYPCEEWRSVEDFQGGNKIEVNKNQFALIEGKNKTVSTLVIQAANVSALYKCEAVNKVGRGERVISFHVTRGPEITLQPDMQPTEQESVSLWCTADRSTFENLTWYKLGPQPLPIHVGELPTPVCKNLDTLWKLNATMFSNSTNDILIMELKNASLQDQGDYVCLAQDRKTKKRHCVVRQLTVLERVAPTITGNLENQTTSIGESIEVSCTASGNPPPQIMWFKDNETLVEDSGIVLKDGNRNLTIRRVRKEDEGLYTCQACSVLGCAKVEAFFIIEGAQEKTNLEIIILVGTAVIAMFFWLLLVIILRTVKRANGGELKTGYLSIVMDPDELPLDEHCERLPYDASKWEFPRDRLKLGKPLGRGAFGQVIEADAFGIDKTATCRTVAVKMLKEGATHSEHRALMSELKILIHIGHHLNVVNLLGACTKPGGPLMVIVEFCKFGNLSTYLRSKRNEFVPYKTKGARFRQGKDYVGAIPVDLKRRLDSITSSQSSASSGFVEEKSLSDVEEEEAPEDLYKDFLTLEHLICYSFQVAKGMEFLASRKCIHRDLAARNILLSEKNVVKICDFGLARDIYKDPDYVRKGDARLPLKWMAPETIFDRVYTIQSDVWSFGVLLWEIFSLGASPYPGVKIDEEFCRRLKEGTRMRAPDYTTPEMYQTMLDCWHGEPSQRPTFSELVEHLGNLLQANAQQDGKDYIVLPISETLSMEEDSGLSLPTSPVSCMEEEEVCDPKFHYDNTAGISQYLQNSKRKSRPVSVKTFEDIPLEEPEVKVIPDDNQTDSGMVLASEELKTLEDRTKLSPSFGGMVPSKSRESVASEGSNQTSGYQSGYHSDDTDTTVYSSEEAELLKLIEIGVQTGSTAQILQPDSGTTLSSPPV
EGFR, sequence (P00533 25-1210, species assumed): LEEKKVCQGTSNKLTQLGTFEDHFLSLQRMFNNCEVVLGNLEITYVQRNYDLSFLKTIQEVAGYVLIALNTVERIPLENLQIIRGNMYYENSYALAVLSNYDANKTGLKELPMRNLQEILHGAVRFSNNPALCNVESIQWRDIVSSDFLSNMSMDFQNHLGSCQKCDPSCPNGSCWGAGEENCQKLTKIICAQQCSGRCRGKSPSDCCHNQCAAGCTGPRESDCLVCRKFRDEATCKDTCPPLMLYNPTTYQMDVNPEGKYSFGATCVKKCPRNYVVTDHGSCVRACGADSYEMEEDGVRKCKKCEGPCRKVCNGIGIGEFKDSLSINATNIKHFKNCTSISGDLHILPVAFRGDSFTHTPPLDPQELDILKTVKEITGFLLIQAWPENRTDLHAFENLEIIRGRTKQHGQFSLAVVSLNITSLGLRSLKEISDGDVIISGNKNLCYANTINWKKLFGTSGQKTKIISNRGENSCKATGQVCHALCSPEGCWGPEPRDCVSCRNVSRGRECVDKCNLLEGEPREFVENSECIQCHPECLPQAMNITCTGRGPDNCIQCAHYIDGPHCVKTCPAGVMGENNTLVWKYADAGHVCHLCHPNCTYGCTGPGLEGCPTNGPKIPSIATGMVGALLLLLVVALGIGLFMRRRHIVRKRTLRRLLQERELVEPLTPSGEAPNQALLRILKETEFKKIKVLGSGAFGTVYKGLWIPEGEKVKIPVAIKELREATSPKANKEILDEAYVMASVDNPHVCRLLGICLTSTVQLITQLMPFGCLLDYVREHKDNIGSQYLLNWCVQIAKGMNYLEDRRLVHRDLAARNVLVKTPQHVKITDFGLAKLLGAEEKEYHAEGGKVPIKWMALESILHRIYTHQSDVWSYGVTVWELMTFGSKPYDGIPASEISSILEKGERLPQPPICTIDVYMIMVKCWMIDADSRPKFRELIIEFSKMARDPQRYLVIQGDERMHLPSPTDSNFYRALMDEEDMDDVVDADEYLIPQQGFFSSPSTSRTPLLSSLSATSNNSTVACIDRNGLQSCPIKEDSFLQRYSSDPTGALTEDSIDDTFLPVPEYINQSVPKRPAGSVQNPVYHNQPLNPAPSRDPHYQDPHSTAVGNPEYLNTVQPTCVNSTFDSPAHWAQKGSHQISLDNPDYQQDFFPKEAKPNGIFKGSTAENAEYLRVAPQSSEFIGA

`O=C1C(c2cccnc2)Cc2cnc(Nc3ccccc3)nc2N1c1ccccc1` (stereo not drawn) [Example 10c, 8-Phenyl-2-phenylamino-6-pyridin-3-yl-5,8-dihydro-6H-pyrido[2,3-d]pyrimidin-7-one]: the pIC50 against KDR, at FGFR, against EGFR and against PDGFR was greater than 5.00 each time.

As for `COc1ccc(C2Cc3cnc(Nc4ccccc4)nc3N(c3ccccc3)C2=O)cc1OC` (stereo not drawn) [Example 11c, 6-(3,4-Dimethoxy-phenyl)-8-phenyl-2-phenylamino-5,8-dihydro-6H-pyrido[2,3-d]pyrimidin-7-one], the pIC50 was greater than 5.00 on KDR, greater than 5.00 on FGFR, less than 5.00 at EGFR and greater than 5.00 against PDGFR.

Take `COc1ccc(C2Cc3cnc(Nc4ccccc4)nc3N(CC3CC3)C2=O)cc1` (stereo not drawn) [Example 14b, 8-Cyclopropylmethyl-6-(4-methoxy-phenyl)-2-phenylamino-5,8-dihydro-6H-pyrido[2,3-d]pyrimidine-7-one]: the negative-log IC50 (pIC50) against KDR, on FGFR, on EGFR and on PDGFR was greater than 5.00 throughout.

For the compound `O=C1C(c2ccccc2)Cc2cnc(Nc3ccccc3)nc2N1c1ccccc1` (stereo not drawn) [Example 5c, 6,8-Diphenyl-2-phenylamino-5,8-dihydro-6H-pyrido[2,3-d]pyrimidin-7-one], the pIC50 at KDR, against FGFR, on EGFR and at PDGFR was greater than 5.00 each time.

As for `COc1ccc(OC)c(C2Cc3cnc(Nc4ccccc4)nc3N(c3ccccc3)C2=O)c1` (stereo not drawn) [Example 6c, 6-(2,5-Dimethoxy-phenyl)-8-phenyl-2-phenylamino-5,8-dihydro-6H-pyrido[2,3-d]pyrimidin-7-one], the pIC50 against KDR, at FGFR, on EGFR and against PDGFR was greater than 5.00 each time.

`COc1ccc(C2Cc3cnc(Nc4ccccc4)nc3N(CC(C)C)C2=O)cc1` (stereo not drawn) [Example 13b, 8-Isobutyl-6-(4-methoxy-phenyl)-2-phenylamino-5,8-dihydro-6H-pyrido[2,3-d]pyrimidine-7-one]: the pIC50 on KDR, at FGFR, against EGFR and against PDGFR was greater than 5.00 throughout.

With `O=C1C(c2cc(C(F)(F)F)cc(C(F)(F)F)c2)Cc2cnc(Nc3ccccc3)nc2N1c1ccccc1` (stereo not drawn) [Example 8d, 6-(3,5-Bis-trifluromethyl-phenyl)-8-phenyl-2-phenylamino-5,8-dihydro-6H-pyrido[2,3-d]pyrimidin-7-one], the negative-log IC50 (pIC50) against KDR is less than 5.00; against FGFR it was less than 5.00; at EGFR it was less than 5.00; on PDGFR it was greater than 5.00.

Turning to `COc1ccccc1C1Cc2cnc(Nc3ccccc3)nc2N(c2ccccc2)C1=O` (stereo not drawn) [Example 7c, 6-(2-Methoxy-phenyl)-8-phenyl-2-phenylamino-5,8-dihydro-6H-pyrido[2,3-d]pyrimidin-7-one], the pIC50 against KDR, at FGFR, against EGFR and against PDGFR was greater than 5.00 in each case.

As for `COc1ccc(C2Cc3cnc(Nc4ccc(OC)nc4)nc3N(c3ccccc3)C2=O)cc1` (stereo not drawn) [Example 12d, 6-(4-Methoxy-phenyl)-2-(6-methoxy-pyridin-3-ylamino)-8-phenyl-5,8-dihydro-6H-pyrido[2,3-d]pyrimidine-7-one], the pIC50 on KDR, against FGFR, on EGFR and on PDGFR was greater than 5.00 in each case.

For `Cc1ccccc1C1Cc2cnc(Nc3ccccc3)nc2N(c2ccccc2)C1=O` (stereo not drawn) [Example 4c, 8-Phenyl-2-phenylamino-6-O-tolyl-5,8-dihydro-6H-pyrido[2,3-d]pyrimidin-7-one], the pIC50 against KDR, against FGFR, against EGFR and at PDGFR was greater than 5.00 throughout.

In the case of `COc1ccc(C2Cc3cnc(Nc4ccccc4)nc3N(c3ccccc3)C2=O)cc1` (stereo not drawn) [Example 1f, 6-(4-Methoxy-phenyl)-8-phenyl-2-phenylamino-5,8-dihydro-6H-pyrido[2,3-d]pyrimidin-7-one], the pIC50 against KDR, against FGFR, against EGFR and on PDGFR was greater than 5.00 throughout.

As to `O=C1C(c2ccncc2)Cc2cnc(Nc3ccccc3)nc2N1c1ccccc1` (stereo not drawn) [Example 9c, 8-Phenyl-2-phenylamino-6-pyridin-4-yl-5,8-dihydro-6H-pyrido[2,3-d]pyrimidin-7-one], the pIC50 against KDR is greater than 5.00; at FGFR, less than 5.00; against EGFR it was greater than 5.00; on PDGFR it was less than 5.00.
